Among the data in ChEMBL document CHEMBL3244053, “Structural modification study of bis(substituted aminoalkylamino)anthraquinones. An evaluation of the relationship of the [2-[(2-hydroxyethyl)amino]ethyl]amino side chain with antineoplastic activity” (1979) are Activity and T/C values, retold here.

In test [1] the test system is P388. The experiment in a line: Antineoplastic activity against mouse P388 cells allografted in CDF1 mouse assessed as survival at 12.5 mg/kg qd for 9 days. It is filed as functional, organism-based. Further details: dose 12.5 mg/kg.
For test [2], the system named is P388. The test can be described thus: Antineoplastic activity against mouse P388 cells allografted in CDF1 mouse at 12.5 mg/kg qd for 9 days relative to control. The class given is functional.
The test system of test [3] is P388. The test can be described thus: Antineoplastic activity against mouse P388 cells allografted in CDF1 mouse at 6.25 mg/kg qd for 9 days relative to control. It is filed as functional.
Test [4] has as its system P388. The test can be described thus: Antineoplastic activity against mouse P388 cells allografted in CDF1 mouse assessed as survival at 6.25 mg/kg qd for 9 days. The class given is functional, organism-based. On the set-up: dose 6.25 mg/kg.
Test [5] concerns P388. The test can be described thus: Antineoplastic activity against mouse P388 cells allografted in CDF1 mouse assessed as survival at 50 mg/kg qd for 9 days. It is filed as functional, organism-based. Further details: dose 50 mg/kg.
Test [6] relates to P388. The test can be described thus: Antineoplastic activity against mouse P388 cells allografted in CDF1 mouse at 100 mg/kg qd for 9 days relative to control. The class given is functional.
For test [7], the system named is P388. The test can be described thus: Antineoplastic activity against mouse P388 cells allografted in CDF1 mouse at 50 mg/kg qd for 9 days relative to control. It is filed as functional.
Test [8] relates to P388. The test can be described thus: Antineoplastic activity against mouse P388 cells allografted in CDF1 mouse at 30 mg/kg qd for 9 days relative to control. The class given is functional.
Test [9] has as its system P388. The test can be described thus: Antineoplastic activity against mouse P388 cells allografted in CDF1 mouse assessed as survival at 30 mg/kg qd for 9 days. The class given is functional, organism-based. On the set-up: dose 30 mg/kg.
The test system of test [10] is P388. The experiment in a line: Antineoplastic activity against mouse P388 cells allografted in CDF1 mouse at 15 mg/kg qd for 9 days relative to control. It is filed as functional.
Test [11] has as its system P388. The test can be described thus: Antineoplastic activity against mouse P388 cells allografted in CDF1 mouse at 25 mg/kg qd for 9 days relative to control. It is filed as functional.
Test [12] concerns P388. The experiment in a line: Antineoplastic activity against mouse P388 cells allografted in CDF1 mouse assessed as survival at 25 mg/kg qd for 9 days. It is filed as functional, organism-based. Further details: dose 25 mg/kg.
The subject of test [13] is P388. The test can be described thus: Antineoplastic activity against mouse P388 cells allografted in CDF1 mouse assessed as survival at 15 mg/kg qd for 9 days. On the set-up: dose 15 mg/kg. The class given is functional, organism-based.
The test system of test [14] is P388. The experiment in a line: Antineoplastic activity against mouse P388 cells allografted in CDF1 mouse assessed as survival at 40 mg/kg qd for 9 days. The class given is functional, organism-based. On the set-up: dose 40 mg/kg.
The subject of test [15] is Colon 26. The experiment in a line: Antineoplastic activity against mouse Colon 26 cells allografted in CDF1 mouse assessed as survival at 80 mg/kg qd for 9 days. The class given is functional, organism-based. Further details: dose 80 mg/kg.
Test [16] has as its system B16. The experiment in a line: Antineoplastic activity against mouse B16 cells allografted in BDF1 mouse at 50 mg/kg qd for 9 days relative to control. The class given is functional.
The test system of test [17] is L1210. The experiment in a line: Antineoplastic activity against mouse L1210 cells allografted in CDF1 mouse at 160 mg/kg qd for 9 days relative to control. It is filed as functional.
Test [18] concerns P388. The experiment in a line: Antineoplastic activity against mouse P388 cells allografted in CDF1 mouse at 80 mg/kg qd for 9 days relative to control. It is filed as functional.
For test [19], the system named is B16. The experiment in a line: Antineoplastic activity against mouse B16 cells allografted in BDF1 mouse assessed as survival at 100 mg/kg qd for 9 days. Further details: dose 100 mg/kg. The class given is functional, organism-based.
The subject of test [20] is P388. The test can be described thus: Antineoplastic activity against mouse P388 cells allografted in CDF1 mouse at 40 mg/kg qd for 9 days relative to control. It is filed as functional.
In test [21] the test system is L1210. The test can be described thus: Antineoplastic activity against mouse L1210 cells allografted in CDF1 mouse assessed as survival at 40 mg/kg qd for 9 days. The class given is functional, organism-based. Further details: dose 40 mg/kg.
Test [22] deals with Colon 26. The experiment in a line: Antineoplastic activity against mouse Colon 26 cells allografted in CDF1 mouse at 40 mg/kg qd for 9 days relative to control. The class given is functional.
Test [23] concerns L1210. The experiment in a line: Antineoplastic activity against mouse L1210 cells allografted in CDF1 mouse assessed as survival at 80 mg/kg qd for 9 days. It is filed as functional, organism-based. Further details: dose 80 mg/kg.
The test system of test [24] is L1210. The test can be described thus: Antineoplastic activity against mouse L1210 cells allografted in CDF1 mouse assessed as survival at 160 mg/kg qd for 9 days. Further details: dose 160 mg/kg. The class given is functional, organism-based.
The subject of test [25] is P388. The experiment in a line: Antineoplastic activity against mouse P388 cells allografted in CDF1 mouse assessed as survival at 80 mg/kg qd for 9 days. The class given is functional, organism-based. On the set-up: dose 80 mg/kg.
Test [26] has as its system B16. The test can be described thus: Antineoplastic activity against mouse B16 cells allografted in BDF1 mouse at 200 mg/kg qd for 9 days relative to control. It is filed as functional.
Test [27] concerns Colon 26. The experiment in a line: Antineoplastic activity against mouse Colon 26 cells allografted in CDF1 mouse assessed as survival at 40 mg/kg qd for 9 days. It is filed as functional, organism-based. Further details: dose 40 mg/kg.
In test [28] the test system is B16. The test can be described thus: Antineoplastic activity against mouse B16 cells allografted in BDF1 mouse assessed as survival at 200 mg/kg qd for 9 days. It is filed as functional, organism-based. On the set-up: dose 200 mg/kg.
The test system of test [29] is L1210. The test can be described thus: Antineoplastic activity against mouse L1210 cells allografted in CDF1 mouse at 80 mg/kg qd for 9 days relative to control. The class given is functional.
In test [30] the test system is B16. The experiment in a line: Antineoplastic activity against mouse B16 cells allografted in BDF1 mouse at 100 mg/kg qd for 9 days relative to control. It is filed as functional.
The test system of test [31] is Colon 26. The test can be described thus: Antineoplastic activity against mouse Colon 26 cells allografted in CDF1 mouse at 80 mg/kg qd for 9 days relative to control. The class given is functional.
Test [32] relates to L1210. The test can be described thus: Antineoplastic activity against mouse L1210 cells allografted in CDF1 mouse at 40 mg/kg qd for 9 days relative to control. The class given is functional.
The test system of test [33] is Colon 26. The test can be described thus: Antineoplastic activity against mouse Colon 26 cells allografted in CDF1 mouse at 20 mg/kg qd for 9 days relative to control. It is filed as functional.
In test [34] the test system is Colon 26. The experiment in a line: Antineoplastic activity against mouse Colon 26 cells allografted in CDF1 mouse assessed as survival at 20 mg/kg qd for 9 days. The class given is functional, organism-based. Further details: dose 20 mg/kg.
For test [35], the system named is B16. The test can be described thus: Antineoplastic activity against mouse B16 cells allografted in BDF1 mouse assessed as survival at 50 mg/kg qd for 9 days. It is filed as functional, organism-based. On the set-up: dose 50 mg/kg.

Active and inactive are the calls of the source. The rule behind the calls is not given here.

On to `CN(C)CCC1=C(Cl)C(=O)c2ccccc2C1=O`, for which the outcome in the test on P388 [1] and with P388 [4] was Active. Moreover, the T/C was 97% with P388 [2] and 94% in the test on P388 [3].

Consider `CN(C)CCC1=CC(=O)c2ccccc2C1=O`, for which the outcome with P388 [5] was Active. The T/C in the test with P388 [6] was 97%; with P388 [7], 100%.

Regarding `Cc1ccc(NCCNCCO)c2c(=O)c3ccccc3sc12`, the result with P388 [1], in the test on P388 [9], in the test with P388 [12] and in the test on P388 [13] was Active. In addition, the T/C in the test with P388 [2] came out at 113%; in the test with P388 [8] it was 136%; with P388 [10] it was 123%; in the test with P388 [11] it was 120%.

On to `CCN(CC)CCC1=C(Cl)C(=O)c2ccccc2C1=O`, for which the outcome in the test with P388 [1] and with P388 [4] was Active. Further, the T/C with P388 [2] is 101%; in the test with P388 [3], 96%.

On to `CN(C)CCNc1ccc(O)c2c1C(=O)c1ccccc1C2=O`, for which the result in the test on P388 [14], in the test with Colon 26 [15], in the test with B16 [19], in the test on L1210 [21], in the test with L1210 [23] and with L1210 [24] was Active. Besides, the result with P388 [25], with P388 [9], in the test with Colon 26 [27], in the test with B16 [28], with Colon 26 [34] and with B16 [35] was Active. The T/C with B16 [16] stood at 110%; in the test with L1210 [17], 139%; with P388 [18], 153%; with P388 [20], 124%; in the test with P388 [8], 100%; in the test with Colon 26 [22] it was 135%. In addition, the T/C in the test on B16 [26] was found to be 156%; in the test with L1210 [29] it was 122%; in the test with B16 [30], 145%; in the test with Colon 26 [31], 115%; with L1210 [32], 107%; with Colon 26 [33] it was 104%.
